Measurements: patent publication US20210139484A1, “DIHYDROISOQUINOLINE-2(1H)-CARBOXAMIDE AND RELATED COMPOUNDS AND THEIR USE IN TREATING MEDICAL CONDITIONS” (GOSSAMER BIO SERVICES, INC., priority 2018, published 2021)

Biological target: T1, human HPK1 protein (Homo sapiens, UniProt Q92918)
T1 construct: recombinant human HPK1 protein (a.a. 1-346) was expressed in Sf9 insect cells; GST (N); purchased Signalchem M23-11G; host or cells: Sf9 insect cells (baculovirus)
T1 sequence (Q92918 1-346): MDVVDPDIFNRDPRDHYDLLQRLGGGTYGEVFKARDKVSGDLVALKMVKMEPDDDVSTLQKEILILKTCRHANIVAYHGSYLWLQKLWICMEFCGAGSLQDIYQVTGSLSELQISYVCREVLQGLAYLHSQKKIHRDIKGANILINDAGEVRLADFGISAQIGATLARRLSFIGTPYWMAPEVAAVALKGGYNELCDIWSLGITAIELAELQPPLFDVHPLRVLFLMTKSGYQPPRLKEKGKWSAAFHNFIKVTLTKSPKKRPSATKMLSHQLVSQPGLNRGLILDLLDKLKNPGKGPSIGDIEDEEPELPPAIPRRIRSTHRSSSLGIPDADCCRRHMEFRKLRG
Assay: Human HPK1 protein TR-FRET assay
Type: biochemical
Settings: 1 mM ATP
Protocol: Exemplary compounds from the above Examples were tested for ability to inhibit HPK1 using a human HPK1 protein TR-FRET Assay. Assay procedures and results are described below.
N-terminal GST-tagged recombinant human HPK1 protein (a.a. 1-346) was expressed in Sf9 insect cells using a baculovirus expression system (Signalchem Catalog #M23-11G). The enzyme was diluted in assay buffer (50 mM Tris pH 7.5, 1 mM MgCl2, 0.01% NP-40 and 2 mM DTT) to obtain a 4× working solution at a concentration of 40 nM HPK1 enzyme.
A 5 μM stock of ULight™ CREBtide peptide RRPSYRK (Perkin Elmer Product No. TRF0107-M) derived from human cAMP Response Element Binding (CREB) Protein was prepared in storage buffer containing 50 mM Tris-HCl (pH 7.4), 0.9% NaCl, 0.1% BSA, and 0.05% sodium azide. The CREBtide substrate was diluted in assay buffer (50 mM Tris pH 7.5, 1 mM MgCl2, 0.01% NP-40, 2 mM DTT) with 2 mM ATP to a final concentration of 200 nM CREBtide peptide to obtain a 2× working solution of substrate. HPK1 enzyme and CREBtide substrate solutions were mixed with compounds diluted in DMSO to obtain a final concentration of enzyme, substrate, and ATP of 10 nM, 100 nM, and 1 mM, respectively, in 1% DMSO. The final assay mixture was incubated at room temperature for 60 minutes.
A solution of Europium-labeled anti-phospho-CREB (Ser133) antibody (Perkin Elmer Product No. TRF0200-M), EDTA and LANCE™ Detection Buffer (Perkin Elmer Product No. CR97-100) were added to each well to obtain a final concentration of 2 nM antibody, 10 mM EDTA and 1× LANCE buffer. The resulting mixture was incubated at room temperature for 60 minutes.
The fluorescence resonance energy transfer (FRET) signal was measured on an Envision plate reader: Excitation filter=340 nm, APC emission=665 nm, Europium emission=615 nm, dichroic mirror=D400/D630, delay time=100 μs, and integration time=200 μs. The half maximal inhibitory concentration (IC50) values for compounds were calculated from the quotient of the fluorescence signal at 665 nm divided by the fluorescence signal at 615 nm. The quotient of the fluorescence signals in the presence of DMSO without compound is set as 100 percent enzymatic activity. A 4-parameter logistic model in PRISM (GraphPad) was used to calculate the IC50 for a given compound.

| SMILES | IC50 (Table 19) [nM] | IC50 (Table 20) [nM] |
| --- | --- | --- |
| CCN1CCN(Cc2ccc(NC(=O)N3CCc4ccc(Oc5ncnn6cc(C)cc56)cc4C3)cc2C(F)(F)F)CC1 [II-7] | < 500 | – |
| C[C@H]1c2cc(Oc3ccnc4[nH]ccc34)ccc2CCN1C(=O)Nc1ccc(OC2CCN(C)CC2)c(C(F)F)c1 [V-15] | 500 to 5000 | – |
| CC[C@H]1CN(C(=O)Nc2ccc(CN3CCN(C)CC3)c(C(F)F)c2)Cc2cc(Oc3ccnc4[nH]c(C5CC5)cc34)cnc21 [XIV-59] | – | < 500 |
| CC[C@H]1CN(C(=O)Nc2ccc(CN3CCNCC3)c(C(F)(F)F)c2)Cc2cc(Oc3ccnc4[nH]c(C5CC5)cc34)cnc21 [XIV-58] | – | < 500 |
| CCN1CCN(Cc2ccc(NC(=O)N3Cc4cc(Oc5ccnc6[nH]c(CO)cc56)cnc4[C@H](C)C3)cc2C(F)(F)F)CC1 [XIV-14] | – | < 500 |
| CCN1CCN(Cc2ccc(NC(=O)N3CCc4ccc(Oc5ccnc6[nH]ccc56)c(C)c4C3)cc2C(F)(F)F)CC1 [III-2] | < 500 | – |
| CCN1CCN(Cc2ccc(NC(=O)N3CCc4ccc(Oc5ccnc6[nH]ccc56)cc4[C@@H]3C)cc2C(F)(F)F)C(=O)C1 [V-20] | 500 to 5000 | – |
| CN1CCN(Cc2ncc(NC(=O)N3CCc4ccc(Oc5c(F)cnc6[nH]c(-c7cccnc7)cc56)cc4C3)cc2C(F)(F)F)CC1 [XII-6] | – | < 500 |
| CCC1CN(C(=O)Nc2ccc(CN3CCN(CC)CC3)c(C(F)(F)F)c2)Cc2cc(Oc3ccnc4[nH]ccc34)ccc21 (centres unmarked) [IV-20] | < 500 | – |
| CC[C@H]1CN(C(=O)Nc2ccc(CN3CCN(C)CC3)c(C(F)(F)F)c2)Cc2cc(Oc3ccnc4[nH]c(-c5cn[nH]c5)cc34)cnc21 [XIV-149] | – | < 500 |
| CCN1CCN(Cc2ccc(NC(=O)N3CCc4cc(F)c(Oc5ccnc6[nH]ccc56)cc4C3)cc2C(F)(F)F)CC1 [compound 3, 7-((1H-Pyrrolo[2,3-b]pyridin-4-yl)oxy)-N-(4-((4-ethylpiperazin-1-yl)methyl)-3-(trifluoromethyl)phenyl)-6-fluoro-3,4-dihydroisoquinoline-2(1H)-carboxamide] | < 500 | – |
| Cc1cc2c(Oc3ccc4c(c3)[C@H](C)N(C(=O)Nc3cnc(NC5CCN(C)CC5)c(C(F)(F)F)c3)CC4)ccnc2[nH]1 [VI-7] | < 500 | – |
| CCN1CCN(Cc2ccc(NC(=O)N3CCc4ccc(Oc5ccnc6[nH]ccc56)c(F)c4C3)cc2C(F)(F)F)CC1 [III-3] | < 500 | – |
| CCN1CCN(Cc2ccc(NC(=O)N3CCc4ccc(Oc5ccnc(NC(C)=O)c5)cc4C3)cc2C(F)(F)F)CC1 [II-14] | < 500 | – |
| CC[C@H]1CN(C(=O)Nc2ccc(CN3CCN(C)CC3)c(C(F)(F)F)c2)Cc2cc(Oc3ccnc4[nH]c(C(N)=O)cc34)cnc21 [XIV-84] | – | < 500 |
| CCN1CCN(Cc2ccc(NC(=O)N3CCc4ccc(Oc5ccnn6cc(-c7cnn(C)c7)cc56)cc4[C@@H]3C)cc2C(F)(F)F)CC1 [V-7] | < 500 | – |
| C[C@H]1c2cc(Oc3ccnc4[nH]c(C5(O)COC5)cc34)ccc2CCN1C(=O)Nc1cnc(OC2CCN(C)CC2)c(C(F)(F)F)c1 [XIII-4] | – | < 500 |
| CCN1CCN(Cc2ccc(NC(=O)N3Cc4cc(Oc5ccnc6c5CCC(=O)N6)cnc4C(C)C3)cc2C(F)(F)F)CC1 (single isomer, unassigned) [XIV-1] | – | < 500 |
| CCN1CCN(Cc2ccc(NC(=O)N3CCc4cc(F)c(Oc5ccnc6[nH]ccc56)cc4C3C)cc2C(F)(F)F)CC1 (single isomer, unassigned) [IV-6] | < 500 | – |
| Cc1cc2c(Oc3ccc4c(c3)[C@H](C)N(C(=O)Nc3cnc(OCCCN(C)C)c(C(F)(F)F)c3)CC4)ccnc2[nH]1 [VI-16] | 500 to 5000 | – |
| CCC1CN(C(=O)Nc2ccc(CN3CCN(CC)CC3)c(C(F)(F)F)c2)Cc2cc(Oc3ccnc4[nH]c(C(C)O)cc34)cnc21 (centres unmarked) [XIV-40] | – | < 500 |
| CCN1CCN(Cc2ccc(NC(=O)C3CCc4ccc(Oc5ccnc6[nH]c(C)cc56)cc4N3C)cc2C(F)(F)F)CC1 (centres unmarked) [compound 16, N-(4-((4-ethylpiperazin-1-yl)methyl)-3-(trifluoromethyl)phenyl)-1-methyl-7-((2-methyl-1H-pyrrolo[2,3-b]pyridin-4-yl)oxy)-1,2,3,4-tetrahydroquinoline-2-carboxamide] | < 500 | – |

| SMILES | IC50 (Table 19) [nM] | IC50 (Table 20) [nM] |
| --- | --- | --- |
| CCN1CCN(Cc2ccc(NC(=O)N3CCc4cc(Oc5ccnc6[nH]ccc56)ccc4C3)cc2C(F)(F)F)CC1 [X-1] | 500 to 5000 | – |
| CCN1CCN(Cc2ccc(NC(=O)C3CCc4ccc(Oc5cc(NC)ncn5)cc4C3)cc2C(F)(F)F)CC1 (centres unmarked) [compound 12, N-(4-((4-ethylpiperazin-1-yl)methyl)-3-(trifluoromethyl)phenyl)-7-((6-(methylamino)pyrimidin-4-yl)oxy)-1,2,3,4-tetrahydronaphthalene-2-carboxamide] | 500 to 5000 | – |
| C[C@H]1c2cc(Oc3ccnc4[nH]ccc34)ccc2CCN1C(=O)Nc1ccc(CN2CCN(C3COC3)CC2)c(C(F)(F)F)c1 [V-21] | 500 to 5000 | – |
| CCN1CCN(Cc2ccc(NC(=O)N3Cc4cc(Oc5ccnc6[nH]ccc56)cnc4C[C@H]3C)cc2C(F)(F)F)CC1 [XVIII-19] | – | < 500 |
| CCN1CCN(Cc2ccc(NC(=O)N3CCc4ccc(Oc5cc(NC(C)=O)ncn5)cc4C3)cc2C(F)(F)F)CC1 [II-9] | < 500 | – |
| CCN1CCN(Cc2ccc(NC(=O)N3Cc4cc(Oc5ccnc6[nH]ncc56)cnc4C(C)C3)cc2C(F)(F)F)CC1 (centres unmarked) [VII-17] | < 500 | – |
| CCN1CCN(Cc2ccc(NC(=O)N3CCc4ccc(Oc5ccnn6cc(F)cc56)cc4C3)cc2C(F)(F)F)CC1 [II-22] | < 500 | – |
| CC[C@H]1CN(C(=O)Nc2ccc(CN3CCN(C)CC3)c(C(F)(F)F)c2)Cc2cc(Oc3ccnc4[nH]c(-c5nnc(C)o5)cc34)cnc21 [XIV-112] | – | < 500 |
| CCN1CCN(Cc2ccc(NC(=O)N3CCc4c(C)cc(Oc5ccnc6[nH]ccc56)cc4C3C)cc2C(F)(F)F)CC1 (centres unmarked) [IV-5] | 500 to 5000 | – |
| CCN1CCC(Oc2ccc(NC(=O)N3CCc4ccc(Oc5ccnc6[nH]ccc56)cc4[C@@H]3C)cc2C(F)F)CC1 [V-16] | 500 to 5000 | – |
| CN1CCN(Cc2ccc(NC(=O)N3Cc4cc(Oc5ccnc6[nH]c(C7(O)CC7)cc56)ccc4C(C(F)(F)F)C3)cc2C(F)(F)F)CC1 (centres unmarked) [XVIII-12] | – | < 500 |
| CC[C@H]1CN(C(=O)Nc2ccc(CN3CCN(C)CC3)c(C(F)(F)F)c2)Cc2cc(Oc3ccnc4[nH]c(C(=O)N5CCCC5)cc34)cnc21 [XIV-102] | – | < 500 |
| CCN1CCN(Cc2ccc(NC(=O)N3CCc4ccc(Oc5ccnc6c5CCN6)cc4C3)cc2C(F)(F)F)CC1 [III-5] | < 500 | – |
| CC[C@@H]1CN(C(=O)Nc2ccc(CN3CCN(C)CC3)c(C(F)F)c2)Cc2cc(Oc3ccnc4[nH]c(CO)cc34)ccc21 [XV-8] | – | < 500 |
| CN1CCN(Cc2ccc(NC(=O)N3CCc4ccc(Oc5c(F)cnc6[nH]c(C7(O)CC7)cc56)cc4C3)cc2C(F)(F)F)CC1 [XVIII-6] | – | < 500 |
| CCN1CCN(Cc2ccc(NC(=O)N3Cc4cc(Oc5ccnc6[nH]c(C)cc56)cnc4C(C)C3)cc2C(F)(F)F)CC1 (single isomer, unassigned) [VII-20] | < 500 | – |
| CCN1CCN(Cc2ccc(NC(=O)N3CCc4c(F)cc(Oc5ccnc6[nH]ccc56)cc4C3C)cc2C(F)(F)F)CC1 (centres unmarked) [IV-16] | 500 to 5000 | – |
| CCN1CCN(Cc2ccc(NC(=O)N3CCc4ccc(Oc5ccnc6[nH]ccc56)cc4C3)cc2C(F)(F)F)CC1 [compound 2, 7-((1H-Pyrrolo[2,3-b]pyridin-4-yl)oxy)-N-(4-((4-ethylpiperazin-1-yl)methyl)-3-(trifluoromethyl)phenyl)-3,4-dihydroisoquinoline-2(1H)-carboxamide] | < 500 | – |
| CC[C@@H]1CN(C(=O)Nc2cnc(OC3CCN(C)CC3)c(C(F)(F)F)c2)Cc2cc(Oc3ccnc4[nH]c(C#N)cc34)cnc21 [XIV-42] | – | < 500 |
| CCN1CCN(Cc2ccc(NC(=O)N3CCc4ccc(Oc5cc(NC(=O)c6cnn(C)c6)ncc5F)cc4[C@@H]3C)cc2C(F)(F)F)CC1 [XIII-17] | – | < 500 |
| CCN1CCN(Cc2ccc(NC(=O)N3Cc4cc(Oc5ccnc6[nH]ccc56)ccc4C(C)C3)cc2C(F)(F)F)CC1 (centres unmarked) [IV-3] | < 500 | – |
| Cc1cc2c(Oc3ccc4c(c3)[C@H](C)N(C(=O)Nc3cnc(OC5CCN(C)CC5F)c(C(F)(F)F)c3)CC4)ccnc2[nH]1 (stereo in doubt) [VI-10] | 500 to 5000 | – |
